Where “and” joins values, the source holds several entries; their conditions need not be identical. Equal entries are not always repeated.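 Results reflect a 48-hour exposure of cells in 96-well plates to compound at five concentrations. At the GI50, growth is halved. Definition used: TGI = concentration required for complete inhibition of growth.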

Test systems include SF-295 CNS; SK-MEL-2 melanoma; HT29 colon; MOLT-4 leukemia; A549 NSCLC; A498 renal; DMS 114 small cell lung; TK-10 renal; NCI-H226 lung; HOP-18 NSCLC.
Holding throughout (assay): DTP human tumour cell line panel, 48 h

For the molecule `COc1cc(/C=C(\NC(=O)c2ccccc2)c2nc3ccc4c(c3[nH]2)C(=O)c2ccccc2C4=O)cc(OC)c1OC`, the TGI in the assay on SF-295 CNS was greater than 100 µM; with SK-MEL-2 melanoma it was greater than 100 µM; in the assay with HT29 colon it was greater than 100 µM; in the assay on MOLT-4 leukemia, 43 µM; in the assay on A549 NSCLC it was greater than 100 µM; in the assay on A498 renal, greater than 100 µM. Further, the total growth inhibition concentration (TGI) with DMS 114 small cell lung, with TK-10 renal and with NCI-H226 lung was greater than 100 µM throughout.

`O=C1C(=O)N(c2ccc(Cl)cc2)C(=O)C(=O)C1c1nc2ccccc2o1`: the TGI in the assay on SF-295 CNS, in the assay with SK-MEL-2 melanoma, in the assay with HT29 colon, with MOLT-4 leukemia, in the assay with A549 NSCLC and in the assay on A498 renal was greater than 100 µM each time. The concentration for total growth inhibition (TGI) with DMS 114 small cell lung, in the assay with TK-10 renal and in the assay on NCI-H226 lung was greater than 100 µM in each case.

Regarding `CCN(CC)CCCC(C)Nc1ccnc2cc(Cl)ccc12` (configuration not stated), the TGI in the assay with SF-295 CNS is 59.9 µM and > 60.1 µM; in the assay with SK-MEL-2 melanoma, > 100 µM and 14.9 µM; in the assay on HT29 colon, greater than 100 µM; in the assay on MOLT-4 leukemia it was > 100 µM and 50 µM; in the assay on A549 NSCLC, greater than 100 µM; in the assay on A498 renal, greater than 100 µM. Also, the concentration for total growth inhibition (TGI) was 56.4 µM in the assay with DMS 114 small cell lung, greater than 100 µM with TK-10 renal and greater than 100 µM in the assay on NCI-H226 lung. For the same molecule, the GI50 was greater than 100 µM in the assay with SK-MEL-2 melanoma; 45.7 µM in the assay with HT29 colon; 62.9 µM in the assay with MOLT-4 leukemia; 64.9 µM in the assay on A549 NSCLC; greater than 100 µM in the assay with A498 renal; 42.1 µM in the assay with TK-10 renal. In the assay on NCI-H226 lung, the GI50 was greater than 100 µM.

In the case of `Cn1c(=O)c(Oc2ccc(F)cc2F)cc2cnc(NC(C)(C)CO)nc21`, the GI50 is greater than 25 µM in the assay with SF-295 CNS; greater than 25 µM in the assay on SK-MEL-2 melanoma; greater than 25 µM in the assay with HT29 colon; greater than 25 µM in the assay on MOLT-4 leukemia; greater than 25 µM in the assay with A549 NSCLC; greater than 15.9 µM with A498 renal. The GI50 in the assay on TK-10 renal and in the assay on NCI-H226 lung was greater than 25 µM throughout. For the same molecule, the total growth inhibition concentration (TGI) in the assay with SF-295 CNS, in the assay on SK-MEL-2 melanoma, in the assay on HT29 colon, with MOLT-4 leukemia, in the assay on A549 NSCLC and in the assay on A498 renal was greater than 25 µM throughout. The concentration for total growth inhibition (TGI) in the assay on TK-10 renal and in the assay on NCI-H226 lung was greater than 25 µM each time.

As to `COc1cc(-c2nccc3cc(OC)c(OC)cc23)ccc1O`, the TGI with SF-295 CNS was greater than 100 µM; in the assay with SK-MEL-2 melanoma, greater than 100 µM; in the assay on HT29 colon, greater than 100 µM; with MOLT-4 leukemia, 91.8 µM; with A549 NSCLC, greater than 100 µM; in the assay on HOP-18 NSCLC, greater than 100 µM. The TGI in the assay on TK-10 renal and in the assay on NCI-H226 lung was greater than 100 µM in each case.

Take `O=c1oc2ccc(I)cc2c(=O)n1-c1ccc(F)cc1F`: the GI50 in the assay on SF-295 CNS is 1.87 µM; with SK-MEL-2 melanoma, 2.15 µM; in the assay with HT29 colon it was 3.4 µM; with MOLT-4 leukemia it was 2.39 µM; with A549 NSCLC, 2.93 µM; with A498 renal, 1.19 µM. The GI50 with TK-10 renal was 4.43 µM; with NCI-H226 lung it was 2.41 µM. The TGI in the assay on SF-295 CNS was found to be 3.74 µM; in the assay with SK-MEL-2 melanoma it was 5.73 µM; in the assay with HT29 colon, 15.4 µM; in the assay on MOLT-4 leukemia, 6.88 µM; in the assay on A549 NSCLC, 19.8 µM; in the assay on A498 renal, 2.92 µM. The total growth inhibition concentration (TGI) is 10.6 µM in the assay on TK-10 renal and 12.7 µM with NCI-H226 lung.

`C=C(CN1CCN(c2ccc(C(F)(F)F)cc2)CC1)c1ccc(C(=O)Nc2ccccc2N)cc1`: the GI50 was 10.8 µM in the assay on SF-295 CNS; greater than 100 µM with SK-MEL-2 melanoma; greater than 75.7 µM with HT29 colon; 0.153 µM with MOLT-4 leukemia; 6.43 µM with A549 NSCLC; 7.67 µM in the assay on A498 renal. In addition, the GI50 was 21 µM in the assay with TK-10 renal and 7.51 µM in the assay with NCI-H226 lung. The TGI with SF-295 CNS is greater than 100 µM; with SK-MEL-2 melanoma it was greater than 100 µM; in the assay with HT29 colon, greater than 100 µM; in the assay on MOLT-4 leukemia, 1.06 µM; in the assay with A549 NSCLC, 45.5 µM; in the assay on A498 renal, 61.5 µM. Further, the TGI in the assay with TK-10 renal is greater than 82.4 µM; in the assay with NCI-H226 lung, greater than 60.5 µM.

For `C=C1CC2(CC(c3ccccc3Cl)OC(c3ccccc3Cl)C2)OC1=O` (configuration not stated), the TGI with SF-295 CNS amounted to 19.2 µM; in the assay with SK-MEL-2 melanoma, 6.78 µM; with HT29 colon it was 6.68 µM; with MOLT-4 leukemia, 6.19 µM; in the assay with A549 NSCLC, 21.2 µM; with A498 renal, 21.3 µM. Further, the total growth inhibition concentration (TGI) in the assay on TK-10 renal was 9.03 µM; with NCI-H226 lung, 21.3 µM.

Turning to `Cc1c(-c2ccc(C3CCCCC3)cc2)nc2ccc(F)cc2c1C(=O)O`, the concentration for 50% growth inhibition (GI50) with SF-295 CNS is 0.0881 µM; in the assay on SK-MEL-2 melanoma it was greater than 45.9 µM; with HT29 colon, 0.311 µM; in the assay with MOLT-4 leukemia, 0.0679 µM; with A549 NSCLC it was 0.128 µM; in the assay on A498 renal it was greater than 36.6 µM. In addition, the results for the GI50 in the assay on TK-10 renal and in the assay with NCI-H226 lung were greater than 76.2 µM and 3.08 µM, respectively. The total growth inhibition concentration (TGI) with SF-295 CNS, in the assay on SK-MEL-2 melanoma, in the assay with HT29 colon, with MOLT-4 leukemia, with A549 NSCLC and in the assay with A498 renal was greater than 100 µM each time. Besides, the concentration for total growth inhibition (TGI) with TK-10 renal and with NCI-H226 lung was greater than 100 µM in each case.

Take `Cc1ccc(-c2nc3ccccc3c(=O)n2NCC2(O)OCC(O)C(O)C2O)cc1` (configuration not stated): the TGI with SF-295 CNS, in the assay on SK-MEL-2 melanoma, with HT29 colon, in the assay with MOLT-4 leukemia, in the assay on A549 NSCLC and with A498 renal was greater than 100 µM throughout. Further, the TGI with DMS 114 small cell lung is greater than 100 µM.

On to `NC(N)=NCC1CCCCCCN1` (configuration not stated), for which the total growth inhibition concentration (TGI) in the assay with SF-295 CNS, in the assay with SK-MEL-2 melanoma, in the assay with HT29 colon, with MOLT-4 leukemia, in the assay with A549 NSCLC and in the assay with A498 renal was greater than 100 µM in each case. Also, the TGI in the assay on TK-10 renal and in the assay with NCI-H226 lung was greater than 100 µM in each case.

With `CC(C)C12Cc3c(ccc4ccccc34)OC1(C)Oc1ccc3ccccc3c1C2` (configuration not stated), the TGI in the assay on SF-295 CNS, in the assay on SK-MEL-2 melanoma, in the assay with HT29 colon, in the assay on MOLT-4 leukemia, with A549 NSCLC and with DMS 114 small cell lung was greater than 100 µM in each case. The total growth inhibition concentration (TGI) in the assay on TK-10 renal and in the assay with NCI-H226 lung was greater than 100 µM throughout.

What is called TGI is the concentration at which net growth stops. Usually GI50 stands for the concentration at which growth is held to half of that of the control.
